From patent US11578055B2, “Triazacyclododecansulfonamide (“TCD”)-based protein secretion inhibitors” (KEZAR LIFE SCIENCES, priority 2018, dated 2023)

Tests used:
[1] = system: PD1 signal sequence plus 10 amino acids fused to Gaussia Luciferase (PD1-ss+10aa/Gaussia Luciferase); assay: Dox Induced PD1-ss-Gluc Assay; format: cell-based; conditions: 24 hr, Dox inducible, 293FRT/TO cells; read-out: 24 hr Dox Inducible PD1ssGluc 293FRT/TO: Mean IC50
Procedure, shortened: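 Stable Flp-In 293 T-REx line expressing the fusion under tetracycline-inducible control, plated the day before assay. Compound dilutions added with doxycycline and incubated at 37 °C, 5% CO2; unspecified stereocentres mean data refer to stereoisomer mixtures.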

[2] = system: full length TNFα (amino acids 1-233) fused to Gaussia Luciferase; assay: Dox Induced TNFα-FL-Gluc Assay; format: cell-based; conditions: 24 hr, Dox inducible, 293FRT/TO cells; read-out: 24 hr Dox Inducible TNFaFLGluc 293FRT/TO: Mean IC50
Procedure, shortened: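 Stable Flp-In 293 T-REx line expressing doxycycline-inducible full-length TNFα fused to Gaussia luciferase; cells plated the day before, then treated with compound dilutions in doxycycline-containing medium at 37° C, 5% CO2. Unspecified stereocentres mean stereoisomer mixtures were tested.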

[3] = system: full length IL-2 (amino acids 1-153) fused to Gaussia Luciferase; assay: Dox Induced IL2-FL-Gluc Assay; format: cell-based; conditions: 24 hr, Dox inducible, 293FRT/TO cells; read-out: 24 hr Dox Inducible IL2FLGluc 293FRT/TO: Mean IC50
Procedure, shortened: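 Flp-In 293 T-REx stable line expressing full-length IL-2 (aa 1-153) with C-terminal Gaussia luciferase fusion under doxycycline-inducible control. Cells plated the day before; compound dilutions added in DMSO/media containing doxycycline, incubated at 37° C, 5% CO2.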

[4] = system: multiple myeloma cell line NCl-H929; assay: H929 Cell Viability Assay; format: cell-based, human; conditions: Homo sapiens, NCI-H929, 48 h, H929, Celltiter-Glo
Procedure, shortened: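 NCI-H929 myeloma cells in RPMI 1640 with 10% FBS were treated with compound dilutions for 48 h at 37 °C, and viability was then read by CellTiter-Glo luminescence. Compounds drawn without stereochemistry were tested as stereoisomer mixtures.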

[5] = system: multiple myeloma cell line U266B1; assay: U266 Cell Viability Assay; format: cell-based, human; conditions: Homo sapiens, U-266; 48 hr, U266, Celltiter-Glo
Procedure, shortened: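 U266B1 myeloma cells in RPMI 1640 with 10% FBS were treated with compound dilutions for 48 h at 37° C, 5% CO2. Viability was read as CellTiter-Glo luminescence. Data for structures drawn without stereochemistry refer to stereoisomer mixtures.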

[6] = In Vitro Microsome Stability Assay (human); format: in vitro ADME; conditions: human liver microsomes, 30 min w/ NADPH
Procedure, shortened: (§1)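 The value reported is the percentage of parent left after 30 min, calculated from analyte/IS peak-area ratios relative to time zero by LC-MS/MS. Incubations ran at 37° C in 0.1 M potassium phosphate with NADPH and microsomes (stock 20 mg/mL), with compound added from a 0.25 mM DMSO stock. Acetonitrile containing IS stopped the reactions.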

[7] = In Vitro Microsome Stability Assay (mouse); format: in vitro ADME; conditions: mouse liver microsomes, 30 min w/ NADPH
Procedure, shortened: as §1

[8] = In Vitro Microsome Stability Assay (rat); format: in vitro ADME; conditions: rat liver microsomes, 30 min w/ NADPH
Procedure, shortened: as §1

[9] = In Vitro Microsome Stability Assay (monkey); format: in vitro ADME; conditions: monkey liver microsomes, 30 min w/ NADPH
Procedure, shortened: as §1

Row | Compound | IC50 [1] | IC50 [2] | IC50 [3] | EC50 [4] | EC50 [5] | Liver Microsome Stability-% Left after 30 min w/ NADPH (%) Human [6] | Liver Microsome Stability-% Left after 30 min w/ NADPH (%) Mouse [7] | Liver Microsome Stability-% Left after 30 min w/ NADPH (%) Rat [8] | Liver Microsome Stability-% Left after 30 min w/ NADPH (%) Monkey [9]
1 | C[C@H]1CN(S(=O)(=O)c2ccc(N(C)C)cc2)CCCN(CC2CCCCC2)CCCN(S(=O)(=O)N2CC(c3ccccc3)C2)C1 [A101, 4-{[(3S)-9-(cyclohexylmethyl)-3-methyl-5-[(3-phenylazetidin-1-yl)sulfonyl]-1,5,9-triazacyclododecan-1-yl]sulfonyl}-N,N-dimethylaniline] | 220 nM | 3430 nM | 564 nM | > 25000 nM | > 25000 nM | 30.2% | 20.8% | 25.4% | 18.8%
2 | Cc1cc(F)ccc1N1CCN(S(=O)(=O)N2CCCN(CC3CCCCC3)CCCN(S(=O)(=O)c3ccc(N(C)C)cc3)C[C@H](C)C2)CC1 [A102, 4-{[(3S)-9-(cyclohexylmethyl)-5-{[4-(4-fluoro-2-methylphenyl)piperazin-1-yl]sulfonyl}-3-methyl-1,5,9-triazacyclododecan-1-yl]sulfonyl}-N,N-dimethylaniline] | 33.4 nM | 477 nM | 90.5 nM | 558 nM | > 25000 nM | 62.3% | 86.6% | 101.9% | 70%
3 | C[C@H]1CN(S(=O)(=O)c2ccc(N(C)C)cc2)CCCN(C(=O)OCc2ccccc2)CCCN(S(=O)(=O)N2CCc3cc(Cl)ccc3C2)C1 [A103] | 446 nM | > 25000 nM | 698 nM | > 25000 nM | > 25000 nM | 31.6% | 42.2% | 36.5% | 38.5%
4 | CCC(C)CN1CCCN(S(=O)(=O)c2ccc(N(C)C)cc2)C[C@H](C)CN(S(=O)(=O)N2CCc3cc(Cl)ccc3C2)CCC1 (stereo partly drawn) [A106, 4-{[(3S)-5-[(6-chloro-1,2,3,4-tetrahydroisoquinolin-2-yl)sulfonyl]-3-methyl-9-(2-methylbutyl)-1,5,9-triazacyclododecan-1-yl]sulfonyl}-N,N-dimethylaniline] | 52.4 nM | 1120 nM | 126 nM | 903 nM | > 25000 nM | 7.18% | 8.81% | 18.9% | 30.7%
5 | C[C@H]1CN(S(=O)(=O)c2ccc(N(C)C)cc2)CCCN(CC2CCC2)CCCN(S(=O)(=O)N2CCc3cc(Cl)ccc3C2)C1 [A108, 4-{[(3S)-5-[(6-chloro-1,2,3,4-tetrahydroisoquinolin-2-yl)sulfonyl]-9-(cyclobutylmethyl)-3-methyl-1,5,9-triazacyclododecan-1-yl]sulfonyl}-N,N-dimethylaniline] | 29.6 nM | 546 nM | 68.3 nM | 421 nM | > 25000 nM | 1.06% | 0.62% | 2.05% | 0.88%
6 | C[C@H]1CN(S(=O)(=O)c2ccc(N(C)C)cc2)CCCN(CC2CCCCC2)CCCN(S(=O)(=O)N2CCN(c3ccccc3C#N)CC2)C1 [A118, 2-(4-{[(3S)-9-(cyclohexylmethyl)-5-[4-(dimethylamino)benzenesulfonyl]-3-methyl-1,5,9-triazacyclododecan-1-yl]sulfonyl}piperazin-1-yl)benzonitrile] | 67.8 nM | 2090 nM | 173 nM | 5350 nM | > 25000 nM | 14.2% | 22.1% | 18.3% | 14.7%
7 | Cc1cccc(C)c1N1CCN(S(=O)(=O)N2CCCN(CC3CCCCC3)CCCN(S(=O)(=O)c3ccc(N(C)C)cc3)C[C@H](C)C2)CC1 [A119, 4-{[(3S)-9-(cyclohexylmethyl)-5-{[4-(2,6-dimethylphenyl)piperazin-1-yl]sulfonyl}-3-methyl-1,5,9-triazacyclododecan-1-yl]sulfonyl}-N,N-dimethylaniline] | 52.3 nM | 1080 nM | 170 nM | 7680 nM | > 25000 nM | 71.7% | 50.8% | 66.1% | 53.9%
8 | CC(C)CCN1CCCN(S(=O)(=O)c2ccc(N(C)C)cc2)C[C@H](C)CN(S(=O)(=O)N2CCc3cc(Cl)ccc3C2)CCC1 [A123, 4-{[(3S)-5-[(6-chloro-1,2,3,4-tetrahydroisoquinolin-2-yl)sulfonyl]-3-methyl-9-(3-methylbutyl)-1,5,9-triazacyclododecan-1-yl]sulfonyl}-N,N-dimethylaniline] | 14 nM | 425 nM | 45.9 nM | 835 nM | > 25000 nM | 5.02% | 6.13% | 7.41% | 3.47%
9 | C[C@H]1CN(S(=O)(=O)c2ccc(N(C)C)cc2)CCCN(Cc2ncco2)CCCN(S(=O)(=O)N2CCc3cc(Cl)ccc3C2)C1 [A125, 4-{[(3S)-5-[(6-chloro-1,2,3,4-tetrahydroisoquinolin-2-yl)sulfonyl]-3-methyl-9-[(1,3-oxazol-2-yl)methyl]-1,5,9-triazacyclododecan-1-yl]sulfonyl}-N,N-dimethylaniline] | 829 nM | 11500 nM | 1090 nM | > 25000 nM | > 25000 nM | 0.2% | 0.14% | 0.37% | 8.67%
10 | Cc1ccc(CN2CCCN(S(=O)(=O)c3ccc(N(C)C)cc3)C[C@H](C)CN(S(=O)(=O)N3CCc4cc(Cl)ccc4C3)CCC2)cc1 [A131, 4-{[(3S)-5-[(6-chloro-1,2,3,4-tetrahydroisoquinolin-2-yl)sulfonyl]-3-methyl-9-[(4-methylphenyl)methyl]-1,5,9-triazacyclododecan-1-yl]sulfonyl}-N,N-dimethylaniline] | 145 nM | 2400 nM | 426 nM | 4740 nM | > 25000 nM | 84.5% | 101% | 73.9% | 70.2%
11 | C[C@H]1CN(S(=O)(=O)c2ccc(N(C)C)cc2)CCCN(CCC2CCCCC2)CCCN(S(=O)(=O)N2CCc3cc(Cl)ccc3C2)C1 [A134, 4-{[(3S)-5-[(6-chloro-1,2,3,4-tetrahydroisoquinolin-2-yl)sulfonyl]-9-(2-cyclohexylethyl)-3-methyl-1,5,9-triazacyclododecan-1-yl]sulfonyl}-N,N-dimethylaniline] | 11 nM | 309 nM | 27.3 nM | 541 nM | > 25000 nM | 31.9% | 27.9% | 41.3% | 9.76%
